Assay results from ChEMBL document CHEMBL1201862, “PubChem BioAssay data set” (2004).
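Protocol summary: plate cells (96-well), add compound at 5 concentrations, incubate 48 h, interpolate endpoints linearly. Here, GI50 denotes the concentration required for 50% inhibition of growth.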 Activity calls are given as the source filed them. Rule as the data show it: active = GI50 up to about 1.1 µM and inactive = higher.

Experiments:
Experiment in all cases: NCI-60 cell line screen, 48 h
K562 = test system: K562
OVCAR-8 = test system: OVCAR-8
OVCAR-3 = test system: OVCAR-3
CAKI-1 = test system: CAKI-1
U-251 = test system: U-251
SNB-19 = test system: SNB-19
CCRF-CEM = test system: CCRF-CEM
NCI-H226 = test system: NCI-H226
PC-3 = test system: PC-3
HOP-92 = test system: HOP-92
HCT-15 = test system: HCT-15
NCI-H522 = test system: NCI-H522
LOX IMVI = test system: LOX IMVI
SF-295 = test system: SF-295
UACC-62 = test system: UACC-62
HL-60 = test system: HL-60
MOLT-4 = test system: MOLT-4
SR = test system: SR
Hs-578T = test system: Hs-578T
COLO 205 = test system: COLO 205

Compound	GI50 (K562)	GI50 (OVCAR-8)	GI50 (OVCAR-3)	GI50 (CAKI-1)	GI50 (U-251)	GI50 (SNB-19)	GI50 (CCRF-CEM)	GI50 (NCI-H226)	GI50 (PC-3)	GI50 (HOP-92)	GI50 (HCT-15) [µM]	GI50 (NCI-H522)	GI50 (LOX IMVI)	GI50 (SF-295)	GI50 (UACC-62)	GI50 (HL-60)	GI50 (MOLT-4)	GI50 (SR)	GI50 (Hs-578T)	GI50 (COLO 205)
CC(=O)Oc1cccc2c(/C=N/NC(N)=S)ncc(C)c12	1.31 µM (inactive)	0.463 µM (active)	0.381 µM (active)	4.17 µM (inactive)	1.01 µM (active)	1.2 µM (inactive)	0.422 µM (active)	2.96 µM (inactive)	1.9 µM (inactive)	3.27 µM (inactive)	2.88	0.705 µM (active)	0.596 µM (active)	2.47 µM (inactive)	1.17 µM (inactive)	0.931 µM (active)	0.385 µM (active)	0.331 µM (active)	20.6 µM (inactive)	3.4 µM (inactive)
CCOC(=O)/C1=C(\C)N(c2ccc(C)cc2)C(=O)c2ccccc2C(=O)c2c(OC(C)=O)ccc(OC(C)=O)c21	16.1 µM (inactive)	36.8 µM (inactive)	16.5 µM (inactive)	13.3 µM (inactive)	24.9 µM (inactive)	25.2 µM (inactive)	10.8 µM (inactive)	14.6 µM (inactive)	26.2 µM (inactive)	29.9 µM (inactive)	16.4	20.7 µM (inactive)	14.4 µM (inactive)	14.5 µM (inactive)	15 µM (inactive)	20 µM (inactive)	6.27 µM (inactive)	15.8 µM (inactive)	16.6 µM (inactive)	13.5 µM (inactive)
CS(C)(=O)=N/C=C\C(=O)C(Cl)(Cl)Cl	> 100 µM (inactive)	> 100 µM (inactive)	> 100 µM (inactive)	> 100 µM (inactive)	79.1 µM (inactive)	> 100 µM (inactive)	44.1 µM (inactive)	> 100 µM (inactive)	54 µM (inactive)	> 100 µM (inactive)	> 100	36.1 µM (inactive)	> 100 µM (inactive)	> 100 µM (inactive)	92.3 µM (inactive)	> 100 µM (inactive)	53.8 µM (inactive)	58.7 µM (inactive)	> 100 µM (inactive)	> 100 µM (inactive)
CN(C)c1nc(N)nc(CS)n1	29.9 µM (inactive)	> 100 µM (inactive)	> 100 µM (inactive)	> 100 µM (inactive)	89.5 µM (inactive)	> 100 µM (inactive)	25.5 µM (inactive)	> 100 µM (inactive)	54.3 µM (inactive)	> 100 µM (inactive)	56.4	> 100 µM (inactive)	42.3 µM (inactive)	52.4 µM (inactive)	61.4 µM (inactive)	23.3 µM (inactive)	50 µM (inactive)	37.2 µM (inactive)	> 100 µM (inactive)	> 100 µM (inactive)
CC(C)=CCc1ccc2[nH]c3c(c2c1)C(=O)C(=O)C(C)=C3C(O)C(C)O (centres undefined)	2.07 µM (inactive)	2.13 µM (inactive)	2.96 µM (inactive)	4.38 µM (inactive)	6.03 µM (inactive)	17 µM (inactive)	1.55 µM (inactive)	15.1 µM (inactive)	9.57 µM (inactive)	1.51 µM (inactive)	2.32	1.69 µM (inactive)	2 µM (inactive)	12.2 µM (inactive)	5.52 µM (inactive)	0.769 µM (active)	1.7 µM (inactive)	2.45 µM (inactive)	15.1 µM (inactive)	2.16 µM (inactive)
CCN(CC)CCc1c2c(nc3ccccc13)C(=O)c1cccnc1C2=O	1.16 µM (inactive)	3.52 µM (inactive)	0.055 µM (active)	2.03 µM (inactive)	2.88 µM (inactive)	–	1.97 µM (inactive)	4.68 µM (inactive)	2.82 µM (inactive)	3.13 µM (inactive)	0.188	0.731 µM (active)	0.369 µM (active)	2.02 µM (inactive)	1.54 µM (inactive)	0.251 µM (active)	3.24 µM (inactive)	0.211 µM (active)	4.99 µM (inactive)	1.58 µM (inactive)
